From ChEMBL document CHEMBL5233224, “Therapeutic potential of targeting SHP2 in human developmental disorders and cancers” (Eur J Med Chem, 2020)
One block for each compound: values may come before it.

Tests used:
[1] = target: T1, Tyrosine-protein phosphatase non-receptor type 11 (Homo sapiens, UniProt Q06124); assay: Inhibition of GST fused SHP2 PTP domain (unknown origin) using Thr-Arg-Asp-Ile-Tyr[PO3H2]-Glu-Thr-Asp-Tyr-Tyr as substrate incubated for 30 mins by malachite green staining based analysis
T1 sequence (Q06124 whole entry): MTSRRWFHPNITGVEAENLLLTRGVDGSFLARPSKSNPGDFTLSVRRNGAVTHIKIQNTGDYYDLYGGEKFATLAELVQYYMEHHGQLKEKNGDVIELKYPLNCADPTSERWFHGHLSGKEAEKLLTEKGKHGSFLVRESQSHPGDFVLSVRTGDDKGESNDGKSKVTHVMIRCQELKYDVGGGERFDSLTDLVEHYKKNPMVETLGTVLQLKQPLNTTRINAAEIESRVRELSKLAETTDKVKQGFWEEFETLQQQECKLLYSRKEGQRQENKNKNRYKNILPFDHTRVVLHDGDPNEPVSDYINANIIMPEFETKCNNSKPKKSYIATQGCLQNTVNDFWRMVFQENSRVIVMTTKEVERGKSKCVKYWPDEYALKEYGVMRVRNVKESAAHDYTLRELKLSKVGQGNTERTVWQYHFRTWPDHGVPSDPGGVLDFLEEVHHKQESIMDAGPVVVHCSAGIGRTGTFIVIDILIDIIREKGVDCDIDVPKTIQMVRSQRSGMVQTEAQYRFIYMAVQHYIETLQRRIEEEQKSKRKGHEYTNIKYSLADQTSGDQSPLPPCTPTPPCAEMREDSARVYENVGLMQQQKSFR

[2] = target: T1, Tyrosine-protein phosphatase non-receptor type 11; assay: Inhibition of SHP2 (unknown origin)
[3] = target: T1, Tyrosine-protein phosphatase non-receptor type 11; assay: Inhibition of human His6-tagged wild type SHP2 PTP domain using pNPP as substrate by absorbance based analysis
[4] = target: Tyrosine-protein phosphatase non-receptor type 11 (Homo sapiens) (UniProt Q06124); assay: Inhibition of SHP2 (unknown origin) at 100 ug/ml; conditions: dose 100.0 µg/ml
[5] = target: T1, Tyrosine-protein phosphatase non-receptor type 11; assay: Binding affinity to SHP2 (unknown origin) assessed as inhibition constant
[6] = target: T2, Receptor-type tyrosine-protein phosphatase O (Homo sapiens, UniProt Q16827); assay: Binding affinity to GLEPP1 (unknown origin) assessed as inhibition constant
T2 sequence (Q16827 whole entry): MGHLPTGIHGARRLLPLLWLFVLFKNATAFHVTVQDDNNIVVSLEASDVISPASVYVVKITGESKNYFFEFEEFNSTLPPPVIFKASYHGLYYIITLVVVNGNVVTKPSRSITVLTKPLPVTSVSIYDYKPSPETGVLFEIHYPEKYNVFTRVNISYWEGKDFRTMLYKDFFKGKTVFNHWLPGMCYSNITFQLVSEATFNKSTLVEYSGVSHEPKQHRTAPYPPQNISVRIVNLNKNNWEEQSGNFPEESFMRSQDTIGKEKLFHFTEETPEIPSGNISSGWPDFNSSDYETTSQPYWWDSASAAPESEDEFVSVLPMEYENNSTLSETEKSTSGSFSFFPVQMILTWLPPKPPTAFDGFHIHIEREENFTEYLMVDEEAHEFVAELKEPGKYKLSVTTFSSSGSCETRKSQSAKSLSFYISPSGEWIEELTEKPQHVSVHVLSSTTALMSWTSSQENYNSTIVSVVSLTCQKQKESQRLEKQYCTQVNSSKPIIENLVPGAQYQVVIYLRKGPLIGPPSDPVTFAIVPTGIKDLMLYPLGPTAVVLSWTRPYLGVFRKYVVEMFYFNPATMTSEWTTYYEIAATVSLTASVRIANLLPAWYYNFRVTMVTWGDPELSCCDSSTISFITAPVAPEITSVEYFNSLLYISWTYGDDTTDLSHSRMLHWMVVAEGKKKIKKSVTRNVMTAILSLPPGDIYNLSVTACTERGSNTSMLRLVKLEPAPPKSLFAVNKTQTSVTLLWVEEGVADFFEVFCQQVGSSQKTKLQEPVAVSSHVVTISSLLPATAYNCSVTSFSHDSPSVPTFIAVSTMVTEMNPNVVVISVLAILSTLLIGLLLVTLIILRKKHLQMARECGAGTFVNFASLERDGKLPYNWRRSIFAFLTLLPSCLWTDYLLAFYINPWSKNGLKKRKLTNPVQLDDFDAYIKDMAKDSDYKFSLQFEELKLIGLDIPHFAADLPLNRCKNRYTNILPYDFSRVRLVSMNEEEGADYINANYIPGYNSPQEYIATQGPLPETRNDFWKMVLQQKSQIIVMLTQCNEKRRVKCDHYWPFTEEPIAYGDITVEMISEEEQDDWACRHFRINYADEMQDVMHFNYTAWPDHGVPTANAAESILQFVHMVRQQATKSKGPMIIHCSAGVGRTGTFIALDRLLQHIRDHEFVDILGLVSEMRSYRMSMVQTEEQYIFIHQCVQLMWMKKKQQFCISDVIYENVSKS

[7] = target: T1, Tyrosine-protein phosphatase non-receptor type 11; assay: Inhibition of human SHP2 (225 to 541 residues) using pNPP as substrate by microplate reader based analysis
[8] = target: T1, Tyrosine-protein phosphatase non-receptor type 11; assay: Inhibition of GST fused SHP2 PTP domain (unknown origin) using EFpYAEVGRSPPDPAK peptide as substrate incubated for 30 mins by malachite green staining based analysis
[9] = target: Tyrosine-protein phosphatase non-receptor type 6 (Homo sapiens, UniProt P29350); assay: Inhibition of SHP1 (unknown origin)
BaF3 = assay: Antiproliferative activity against mouse BaF3 cells assessed as cell growth inhibition measured after 48 hrs by MTS assay; assay type: functional, cell-based; conditions: BaF3, 48 h
[10] = target: T1, Tyrosine-protein phosphatase non-receptor type 11; assay: Inhibition of SHP2 (unknown origin) using pNPP as substrate by spectrophotometer analysis

Chain of Tyrosine-protein phosphatase non-receptor type 6 (P29350 whole entry): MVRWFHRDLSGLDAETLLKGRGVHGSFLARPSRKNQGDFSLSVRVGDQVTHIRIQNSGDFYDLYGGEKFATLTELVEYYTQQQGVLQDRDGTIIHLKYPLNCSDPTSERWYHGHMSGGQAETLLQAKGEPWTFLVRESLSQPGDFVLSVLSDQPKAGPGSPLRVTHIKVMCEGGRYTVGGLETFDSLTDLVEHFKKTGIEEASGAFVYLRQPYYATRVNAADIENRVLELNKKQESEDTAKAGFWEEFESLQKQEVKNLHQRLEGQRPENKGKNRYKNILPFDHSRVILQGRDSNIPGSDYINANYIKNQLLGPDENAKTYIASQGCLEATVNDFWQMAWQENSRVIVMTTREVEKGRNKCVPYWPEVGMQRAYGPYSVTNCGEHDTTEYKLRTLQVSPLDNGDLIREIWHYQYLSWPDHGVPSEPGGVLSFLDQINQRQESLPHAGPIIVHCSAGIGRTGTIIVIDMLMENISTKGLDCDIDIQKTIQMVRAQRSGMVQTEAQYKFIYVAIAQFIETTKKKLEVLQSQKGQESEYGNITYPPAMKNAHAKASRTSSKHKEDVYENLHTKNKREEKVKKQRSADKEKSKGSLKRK

IC50 [2]: 21 µM
Compound: O=C(O)c1ccc(O)c(-c2nnc3n(Cc4ccccc4Cl)c(=O)c4ccccc4n23)c1

IC50 [3]: 35 µM
Compound: C=CC(=O)Nc1ccnc2ccccc12

inhibition [4]: 99%
Compound: (3R,4S,5R)-1-(((3S,4R,5R)-3-(carboxymethyl)-1-hydroxy-5-((R)-1-hydroxypropan-2-yl)-2,6,7-trioxa-1l5-stibabicyclo[2.2.1]heptan-1-yl)oxy)-5-((R)-1,2-dihydroxyethyl)-1-hydroxy-2,6,7-trioxa-1l5-stibabicyclo[2.2.1]heptane-3-carboxylic acid

Ki [5]: 0.652 µM | Ki [6]: 0.123 µM
Compound: CCCCCCN(Cc1ccc(C#Cc2ccc(CCCC)cc2)cc1)c1ccc(O)c(C(=O)O)c1

Further lines, the compound ahead of its results:

Compound: Cc1cc(C)c2c(c1)[nH]c1nnc(SCC(=O)NCc3cccs3)nc12
IC50 [1]: 13.9 µM

Compound: COc1cccc(-c2nnc3n(Cc4ccc(C(=O)N5CCC[C@H]5C(=O)O)cc4Cl)c(=O)c4ccccc4n23)c1O
IC50 [2]: 18.9 µM

Compound: CCOC(=O)c1ccc(N2N=C(c3ccc([N+](=O)[O-])cc3)/C(=N/Nc3ccc(S(=O)(=O)O)cc3)C2=O)cc1
IC50 [7]: 0.63 µM

Compound: O=C(CCn1cnc2sc3c(c2c1=O)CCCCC3)Nc1ccccc1[N+](=O)[O-]
IC50 [8]: 9.97 µM | IC50 [9]: > 100 µM | IC50 (BaF3): 10.7 µM

Compound: C=C/C(=C/C(=O)C[C@H](C)C[C@@H](C)CC[C@H](O)[C@H](C)C(=O)C[C@@H](O)[C@H](C)[C@@H](C)OC(=O)C[C@@H](O)/C(C(=O)O)=C(\C)C(=O)O)CC
IC50 [10]: 2.9 µM

Compound: O=C1C=CC(=O)C(c2cc(Cl)ccc2Cl)=C1
IC50 [2]: 0.4 µM
